Each structure is given as a SMILES string. Converted amounts (≈) assume the structure as drawn.

This note sets out measurements from PMC4196226 (mBio, 2014).

What all share (format): cell-based
The test system of assay [1] is P. aeruginosa. The experiment in a line: microbe, parasite or virus in culture. Conditions: Pseudomonas aeruginosa.
Assay [2] concerns K. pneumoniae. Put plainly: microbe, parasite or virus in culture. Conditions: Klebsiella pneumoniae.
Assay [3] concerns A. baumannii. Put plainly: MIC assay. The conditions noted are these: Acinetobacter baumannii.
Assay [4] concerns B. cepacia. Put plainly: MIC assay. Conditions: Burkholderia cepacia.
The test system of assay [5] is S. maltophilia. Put plainly: MIC assay. The conditions noted are these: Stenotrophomonas maltophilia.

Take `C[C@@H](O)[C@H]1C(=O)N2C(C(=O)O)=C(S[C@@H]3CN[C@H](C(=O)N(C)C)C3)[C@H](C)[C@H]12` [MPM, meropenem]: the MIC90 in assay [1] is more than 64 µg/mL; in assay [2], 32 µg/mL (≈ 83.4 µM); in assay [3] it was 32 µg/mL (≈ 83.4 µM); in assay [4], 8 µg/mL (≈ 20.9 µM); in assay [5], more than 64 µg/mL.
